Counter-ions that a name gives are not always drawn.
Experiments:
[1] = system: RS4;11 leukaemia tumour line; experiment: In vitro cytotoxicity (Microculture Tetrazolium Assay, 48 hours); type: cell-based; conditions: Homo sapiens, RS4;11 cells, 48 hours exposure, MTT, concentration that inhibits cell viability by 50%, read-out: IC50 (nM) MTT RS4
Experimental: The cytotoxicity studies were carried out on the RS4;11 leukaemia tumour line.
The cells are distributed onto microplates and exposed to the test compounds for 48 hours.

Bcl-2 protein = Bcl-2 protein (Homo sapiens (Human), UniProt P10415); experiment: Inhibition of Bcl-2 by the fluorescence polarisation technique; type: binding; conditions: fluorescence polarisation test; concentration that inhibits fluorescence polarisation by 50%; read-out: IC50 (nM) Bcl-2 FP
Chain of Bcl-2 protein (P10415 whole entry): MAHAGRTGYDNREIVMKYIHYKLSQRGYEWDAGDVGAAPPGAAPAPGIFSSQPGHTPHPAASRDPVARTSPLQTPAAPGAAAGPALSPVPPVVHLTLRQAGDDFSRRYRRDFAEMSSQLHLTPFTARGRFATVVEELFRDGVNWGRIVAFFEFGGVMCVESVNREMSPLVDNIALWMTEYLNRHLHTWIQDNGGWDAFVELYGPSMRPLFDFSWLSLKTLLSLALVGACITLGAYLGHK
Experimental: The fluorescence polarisation tests were carried out on microplates (384 wells). […] After incubation for 2 hours, the fluorescence polarisation is measured.

SMILES	IC50 [1]	IC50 (Bcl-2 protein)
CN1CCCc2cc(N(C(=O)c3cc(-c4cc5c(cc4C(=O)N4Cc6ccccc6C[C@H]4CN4CCOCC4)OCCO5)n4c3CCCC4)c3ccc(O)cc3)ccc21 [Example 40, N-(4-Hydroxyphenyl)-N-(1-methyl-1,2,3,4-tetrahydro-6-quinolinyl)-3-{7-[((3S)-3-(4-morpholinylmethyl)-3,4-dihydro-2(1H)-isoquinolinyl)carbonyl]-2,3-dihydro-1,4-benzodioxin-6-yl}-5,6,7,8-tetrahydro-1-indolizine carboxamide hydrochloride]	32.2 nM	15 nM
CN1CCOc2cc(N(C(=O)c3cc(-c4cc5c(cc4C(=O)N4Cc6ccccc6C[C@H]4CN4CCOCC4)OCCO5)n4c3CCCC4)c3ccc(O)cc3)ccc21 [Example 41, N-(4-Hydroxyphenyl)-N-(4-methyl-3,4-dihydro-2H-1,4-benzoxazin-7-yl)-3-{7-[((3S)-3-(4-morpholinylmethyl)-3,4-dihydro-2(1H)-isoquinolinyl)carbonyl]-2,3-dihydro-1,4-benzodioxin-6-yl}-5,6,7,8-tetrahydro-1-indolizine carboxamide hydrochloride]	44 nM	26 nM
Cn1ncc2cc(N(C(=O)c3cc(-c4cc(Cl)ccc4C(=O)N4Cc5ccccc5C[C@H]4CN4CCOCC4)n4c3CCCC4)c3ccc(O)cc3)ccc21 [Example 42, 3-{5-Chloro-2-[((3S)-3-(4-morpholinylmethyl)-3,4-dihydro-2(1H)-isoquinolinyl)carbonyl]phenyl}-N-(4-hydroxyphenyl)-N-(1-methyl-1H-indazol-5-yl)-5,6,7,8-tetrahydro-1-indolizine carboxamide hydrochloride]	53.6 nM	13 nM
Cn1ncc2cc(N(C(=O)c3cc(-c4cc(F)ccc4C(=O)N4Cc5ccccc5C[C@H]4CN4CCOCC4)n4c3CCCC4)c3ccc(O)cc3)ccc21 [Example 44, 3-{5-Fluoro-2-[((3S)-3-(4-morpholinylmethyl)-3,4-dihydro-2(1H)-isoquinolinyl)carbonyl]phenyl}-N-(4-hydroxyphenyl)-N-(1-methyl-1H-indazol-5-yl)-5,6,7,8-tetrahydro-1-indolizine carboxamide hydrochloride]	45 nM	14 nM
CN1CC2(CC2)c2cc(N(C(=O)c3cc(-c4cc(Cl)ccc4C(=O)N4Cc5ccccc5C[C@H]4CN4CCOCC4)n4c3CCCC4)c3ccc(O)cc3)ccc21 [Example 45, 3-{5-Chloro-2-[((3S)-3-(4-morpholinylmethyl)-3,4-dihydro-2(1H)-isoquinolinyl)carbonyl]phenyl}-N-(4-hydroxyphenyl)-N-(1′-methyl-1′,2′-dihydrospiro[cyclopropane-1,3′-indol]-5′-yl)-5,6,7,8-tetrahydro-1-indolizine carboxamide]	76.8 nM	47 nM
Cn1ccc2cc(N(C(=O)c3cc(-c4cc(Cl)ccc4C(=O)N4Cc5ccccc5C[C@H]4CN4CCCOCC4)n4c3CCCC4)c3ccc(O)cc3)ccc21 [Example 46, 3-{5-Chloro-2-[((3S)-3-(1,4-oxazepan-4-ylmethyl)-3,4-dihydro-2(1H)-isoquinolinyl)carbonyl]phenyl}-N-(4-hydroxyphenyl)-N-(1-methyl-1H-indol-5-yl)-5,6,7,8-tetrahydro-1-indolizine carboxamide hydrochloride]	56.8 nM	21 nM
Cn1ccc2cc(N(C(=O)c3cc(-c4cc(C(F)(F)F)ccc4C(=O)N4Cc5ccccc5C[C@H]4CN4CCOCC4)n4c3CCCC4)c3ccc(O)cc3)ccc21 [Example 47, N-(4-Hydroxyphenyl)-N-(1-methyl-1H-indol-5-yl)-3-[2-[((3S)-3-(4-morpholinylmethyl)-3,4-dihydro-2(1H)-isoquinolinyl)carbonyl]-5-(trifluoromethyl)-phenyl]-5,6,7,8-tetrahydro-1-indolizine carboxamide hydrochloride]	194 nM	58 nM
Cn1ccc2cc(N(C(=O)c3cc(-c4cc(OC(F)(F)F)ccc4C(=O)N4Cc5ccccc5C[C@H]4CN4CCOCC4)n4c3CCCC4)c3ccc(O)cc3)ccc21 [Example 48, N-(4-Hydroxyphenyl)-N-(1-methyl-1H-indol-5-yl)-3-[2-[((3S)-3-(4-morpholinylmethyl)-3,4-dihydro-2(1H)-isoquinolinyl)carbonyl]-5-(trifluoromethoxy)-phenyl]-5,6,7,8-tetrahydro-1-indolizine carboxamide hydrochloride]	229 nM	130 nM
CN1CC(C)(C)c2cc(N(C(=O)c3cc(-c4cc(Cl)ccc4C(=O)N4Cc5ccccc5C[C@H]4CN4CCOCC4)n4c3CCCC4)c3ccc(O)cc3)ccc21 [Example 49, 3-{5-Chloro-2-[((3S)-3-(4-morpholinylmethyl)-3,4-dihydro-2(1H)-isoquinolinyl)carbonyl]phenyl}-N-(4-hydroxyphenyl)-N-(1,3,3-trimethyl-2,3-dihydro-1H-indol-5-yl)-5,6,7,8-tetrahydro-1-indolizine carboxamide]	169 nM	45 nM
Cl.[2H]C1([2H])Oc2cc(C(=O)N3Cc4ccccc4C[C@H]3CN3CCOCC3)c(-c3cc(C(=O)N(c4ccc(O)cc4)c4ccc5c(cnn5C)c4)c4n3CCCC4)cc2O1 [Example 50, N-(4-Hydroxyphenyl)-N-(1-methyl-1H-indazol-5-yl)-3-{2,2-dideuterio-6-[((3S)-3-(4-morpholinylmethyl)-3,4-dihydro-2(1H)-isoquinolinyl)carbonyl]-1,3-benzodioxol-5-yl}-5,6,7,8-tetrahydro-1-indolizine carboxamide hydrochloride]	4.01 nM	13 nM
Cl.[2H]C1([2H])Oc2cc(C(=O)N3Cc4ccccc4C[C@H]3CN3CCOCC3)c(-c3cc(C(=O)N(c4ccc(O)cc4)c4ccc(C)c(F)c4)c4n3CCCC4)cc2O1 [Example 51, N-(3-Fluoro-4-methylphenyl)-N-(4-hydroxyphenyl)-3-{2,2-dideuterio-6-[((3S)-3-(4-morpholinylmethyl)-3,4-dihydro-2(1H)-isoquinolinyl)carbonyl]-1,3-benzodioxol-5-yl}-5,6,7,8-tetrahydro-1-indolizine carboxamide hydrochloride]	26 nM	32 nM
CN(C)C[C@@H]1Cc2ccccc2CN1C(=O)c1ccc(Cl)cc1-c1cc(C(=O)N(c2ccc(O)cc2)c2ccc3c(ccn3C)c2)c2n1CCCC2 [Example 52, 3-{5-Chloro-2-[((3S)-3-[(dimethylamino)methyl]-3,4-dihydro-2(1H)-isoquinolinyl)carbonyl]phenyl}-N-(4-hydroxyphenyl)-N-(1-methyl-1H-indol-5-yl)-5,6,7,8-tetrahydro-1-indolizine carboxamide hydrochloride]	19.8 nM	16 nM
COc1ccc(N(C(=O)c2cc(-c3cc(Cl)ccc3C(=O)N3Cc4ccccc4C[C@H]3CN3CCOCC3)n3c2CCCC3)c2ccc(O)cc2)cc1C(F)(F)F [Example 53, 3-{5-Chloro-2-[((3S)-3-(4-morpholinylmethyl)-3,4-dihydro-2(1H)-isoquinolinyl)carbonyl]phenyl}-N-(4-hydroxyphenyl)-N-[4-methoxy-3-(trifluoro-methyl)phenyl]-5,6,7,8-tetrahydro-1-indolizine carboxamide hydrochloride]	138 nM	180 nM
CSc1ccc(N(C(=O)c2cc(-c3cc(Cl)ccc3C(=O)N3Cc4ccccc4C[C@H]3CN3CCOCC3)n3c2CCCC3)c2ccc(O)cc2)cc1C(F)(F)F [Example 54, 3-{5-Chloro-2-[((3S)-3-(4-morpholinylmethyl)-3,4-dihydro-2(1H)-isoquinolinyl)carbonyl]phenyl}-N-(4-hydroxyphenyl)-N-[4-(methylsulphanyl)-3-(trifluoromethyl)phenyl]-5,6,7,8-tetrahydro-1-indolizine carboxamide hydrochloride]	106 nM	180 nM
Cn1ccc2cc(N(C(=O)c3cc(-c4cc(Cl)ccc4C(=O)N4Cc5ccccc5C[C@H]4CN4CCOCC4)n4c3CCCC4)c3ccc(O)c(F)c3)ccc21 [Example 55, 3-{5-Chloro-2-[((3S)-3-(4-morpholinylmethyl)-3,4-dihydro-2(1H)-isoquinolinyl)carbonyl]phenyl}-N-(3-fluoro-4-hydroxyphenyl)-N-(1-methyl-1H-indol-5-yl)-5,6,7,8-tetrahydro-1-indolizine carboxamide hydrochloride]	19.4 nM	34 nM
CN1CCN(C[C@@H]2Cc3ccccc3CN2C(=O)c2cc3c(cc2-c2cc(C(=O)N(c4ccc(O)cc4)c4ccc5c(ccn5C)c4)c4ccccn24)OCO3)CC1 [Example 57, N-(4-Hydroxyphenyl)-N-(1-methyl-1H-indol-5-yl)-3-{6-[((3S)-3-[(4-methyl-1-piperazinyl)methyl]-3,4-dihydro-2(1H)-isoquinolinyl)carbonyl]-1,3-benzodioxol-5-yl}-1-indolizine carboxamide bis(hydrochloride)]	8.62 nM	12 nM
CCn1ccc2cc(N(C(=O)c3cc(-c4cc5c(cc4C(=O)N4Cc6ccccc6C[C@H]4CN4CCOCC4)OCO5)n4ccccc34)c3ccc(O)cc3)ccc21 [Example 60, N-(1-Ethyl-1H-indol-5-yl)-N-(4-hydroxyphenyl)-3-{6-[((3S)-3-(4-morpholinylmethyl)-3,4-dihydro-2(1H)-isoquinolinyl)carbonyl]-1,3-benzodioxol-5-yl}-1-indolizine carboxamide hydrochloride]	11.7 nM	19 nM
CN1CCc2cc(N(C(=O)c3cc(-c4cc5c(cc4C(=O)N4Cc6ccccc6C[C@H]4CN4CCOCC4)OCO5)n4ccccc34)c3ccc(O)cc3)ccc21 [Example 61, N-(4-Hydroxyphenyl)-N-(1-methyl-2,3-dihydro-1H-indol-5-yl)-3-{6-[((3S)-3-(4-morpholinylmethyl)-3,4-dihydro-2(1H)-isoquinolinyl)carbonyl]-1,3-benzodioxol-5-yl}-1-indolizine carboxamide hydrochloride]	14.5 nM	22 nM

From patent publication US9120791B2, “Indolizine compounds, a process for their preparation and pharmaceutical compositions containing them” (LES LABORATOIRES SERVIER, priority 2012, dated 2015)
